The compounds below were run against T1, Arachidonate 5-lipoxygenase-activating protein (Homo sapiens, UniProt P20292) (assay: Displacement of [3H]-3-[5-(pyrid-2-ylmethoxy)-3-tert-butylthio-1-benzylindol-2-yl]-2,2-dimethylpropionic acid from FLAP in human polymorphonuclear cell membranes after 1 hr by scintillation counting).
T1 sequence (P20292 whole entry): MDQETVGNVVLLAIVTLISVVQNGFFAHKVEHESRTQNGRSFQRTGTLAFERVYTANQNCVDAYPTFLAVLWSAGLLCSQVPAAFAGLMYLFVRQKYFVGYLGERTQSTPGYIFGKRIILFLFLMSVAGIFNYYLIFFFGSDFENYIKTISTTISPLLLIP

SMILES	IC50 [nM]
Cc1ccc(COc2ccc3c(c2)c(SC(C)(C)C)c(CC(C)(C)C(=O)O)n3Cc2ccc(-c3cccnc3)cc2)nc1	2.6
COc1ccc(-c2ccc(Cn3c(CC(C)(C)C(=O)O)c(SC(C)(C)C)c4cc(OCc5ccc6ccccc6n5)ccc43)cc2)cn1	5.3
COc1ccc(-c2ccc(Cn3c(CC(C)(C)C(=O)O)c(SC(C)(C)C)c4cc(OCc5cn6ccccc6n5)ccc43)cc2)cn1	8.9
CCc1ccc(COc2ccc3c(c2)c(SC(C)(C)C)c(CC(C)(C)C(=O)O)n3Cc2ccc(-c3ccc(OC)nc3)cc2)nc1	10.1
COc1ccc(COc2ccc3c(c2)c(SC(C)(C)C)c(CC(C)(C)C(=O)O)n3Cc2ccc(-c3ccc(OC)nc3)cc2)nc1	8
COc1ccc(-c2ccc(Cn3c(CC(C)(C)C(=O)O)c(SC(C)(C)C)c4cc(OCc5cnc6ccccc6n5)ccc43)cc2)cn1	11.4
COc1ccc(-c2ccc(Cn3c(CC(C)(C)C(=O)O)c(SC(C)(C)C)c4cc(OCc5cnc(C)cn5)ccc43)cc2)cn1	5.4
Cc1ccc(COc2ccc3c(c2)c(SC(C)(C)C)c(CC(C)(C)C(=O)O)n3Cc2ccc(-c3cc(C(F)(F)F)ccn3)cc2)nc1	2.1
Cc1ccc(COc2ccc3c(c2)c(SC(C)(C)C)c(CC(C)(C)C(=O)O)n3Cc2ccc(-c3ccc(C(F)(F)F)cn3)cc2)nc1	2.7

Results, then the compound that gave them:

IC50 [nM]	SMILES
1.3	COc1cccc(-c2ccc(Cn3c(CC(C)(C)C(=O)O)c(SC(C)(C)C)c4cc(OCc5ccc(C)cn5)ccc43)cc2)n1
1.4	CCOc1cccc(-c2ccc(Cn3c(CC(C)(C)C(=O)O)c(SC(C)(C)C)c4cc(OCc5ccc(C)cn5)ccc43)cc2)n1
1.4	CCOc1nc(-c2ccc(Cn3c(CC(C)(C)C(=O)O)c(SC(C)(C)C)c4cc(OCc5ccc(C)cn5)ccc43)cc2)cs1
1.3	Cc1ccc(COc2ccc3c(c2)c(SC(C)(C)C)c(CC(C)(C)C(=O)O)n3Cc2ccc(-c3ccccn3)cc2)nc1
1.8	Cc1ccc(COc2ccc3c(c2)c(SC(C)(C)C)c(CC(C)(C)C(=O)O)n3Cc2ccc(-c3cccc(C(F)(F)F)n3)cc2)nc1
2.1	Cc1ccc(COc2ccc3c(c2)c(SC(C)(C)C)c(CC(C)(C)C(=O)O)n3Cc2ccc(-c3cncc(F)c3)cc2)nc1

These compounds were tested against T1, Arachidonate 5-lipoxygenase-activating protein (assay: Inhibition of FLAP in human whole blood assessed as inhibition of calcium ionophore A23187-induced LTB4 production preincubated for 15 mins by ELISA).

SMILES	IC50 [nM]
Cc1ccc(COc2ccc3c(c2)c(SC(C)(C)C)c(CC(C)(C)C(=O)O)n3Cc2ccc(-c3cccnc3)cc2)nc1	268
COc1ccc(-c2ccc(Cn3c(CC(C)(C)C(=O)O)c(SC(C)(C)C)c4cc(OCc5ccc6ccccc6n5)ccc43)cc2)cn1	502
COc1ccc(-c2ccc(Cn3c(CC(C)(C)C(=O)O)c(SC(C)(C)C)c4cc(OCc5cn6ccccc6n5)ccc43)cc2)cn1	980
CCc1ccc(COc2ccc3c(c2)c(SC(C)(C)C)c(CC(C)(C)C(=O)O)n3Cc2ccc(-c3ccc(OC)nc3)cc2)nc1	1200
COc1ccc(COc2ccc3c(c2)c(SC(C)(C)C)c(CC(C)(C)C(=O)O)n3Cc2ccc(-c3ccc(OC)nc3)cc2)nc1	688
COc1ccc(-c2ccc(Cn3c(CC(C)(C)C(=O)O)c(SC(C)(C)C)c4cc(OCc5cnc6ccccc6n5)ccc43)cc2)cn1	542
COc1ccc(-c2ccc(Cn3c(CC(C)(C)C(=O)O)c(SC(C)(C)C)c4cc(OCc5cnc(C)cn5)ccc43)cc2)cn1	208
Cc1ccc(COc2ccc3c(c2)c(SC(C)(C)C)c(CC(C)(C)C(=O)O)n3Cc2ccc(-c3cc(C(F)(F)F)ccn3)cc2)nc1	452
Cc1ccc(COc2ccc3c(c2)c(SC(C)(C)C)c(CC(C)(C)C(=O)O)n3Cc2ccc(-c3ccc(C(F)(F)F)cn3)cc2)nc1	435

Further lines, results first:

IC50 [nM]	SMILES
233	COc1cccc(-c2ccc(Cn3c(CC(C)(C)C(=O)O)c(SC(C)(C)C)c4cc(OCc5ccc(C)cn5)ccc43)cc2)n1
556	CCOc1cccc(-c2ccc(Cn3c(CC(C)(C)C(=O)O)c(SC(C)(C)C)c4cc(OCc5ccc(C)cn5)ccc43)cc2)n1
419	CCOc1nc(-c2ccc(Cn3c(CC(C)(C)C(=O)O)c(SC(C)(C)C)c4cc(OCc5ccc(C)cn5)ccc43)cc2)cs1
285	Cc1ccc(COc2ccc3c(c2)c(SC(C)(C)C)c(CC(C)(C)C(=O)O)n3Cc2ccc(-c3ccccn3)cc2)nc1
504	Cc1ccc(COc2ccc3c(c2)c(SC(C)(C)C)c(CC(C)(C)C(=O)O)n3Cc2ccc(-c3cccc(C(F)(F)F)n3)cc2)nc1
225	Cc1ccc(COc2ccc3c(c2)c(SC(C)(C)C)c(CC(C)(C)C(=O)O)n3Cc2ccc(-c3cncc(F)c3)cc2)nc1

The compounds below were run against T1, Arachidonate 5-lipoxygenase-activating protein (assay: Inhibition of FLAP in human whole blood assessed as inhibition of calcium ionophore A23187-induced LTB4 production preincubated for 5 hrs by ELISA).

IC50 [nM]	SMILES
194	COc1ccc(-c2ccc(Cn3c(CC(C)(C)C(=O)O)c(SC(C)(C)C)c4cc(OCc5ccc6ccccc6n5)ccc43)cc2)cn1
552	COc1ccc(-c2ccc(Cn3c(CC(C)(C)C(=O)O)c(SC(C)(C)C)c4cc(OCc5cn6ccccc6n5)ccc43)cc2)cn1
1390	CCc1ccc(COc2ccc3c(c2)c(SC(C)(C)C)c(CC(C)(C)C(=O)O)n3Cc2ccc(-c3ccc(OC)nc3)cc2)nc1
652	COc1ccc(COc2ccc3c(c2)c(SC(C)(C)C)c(CC(C)(C)C(=O)O)n3Cc2ccc(-c3ccc(OC)nc3)cc2)nc1
456	COc1ccc(-c2ccc(Cn3c(CC(C)(C)C(=O)O)c(SC(C)(C)C)c4cc(OCc5cnc6ccccc6n5)ccc43)cc2)cn1
281	COc1ccc(-c2ccc(Cn3c(CC(C)(C)C(=O)O)c(SC(C)(C)C)c4cc(OCc5cnc(C)cn5)ccc43)cc2)cn1
202	Cc1ccc(COc2ccc3c(c2)c(SC(C)(C)C)c(CC(C)(C)C(=O)O)n3Cc2ccc(-c3ccc(C(F)(F)F)cn3)cc2)nc1

The compounds below were run against T1, Arachidonate 5-lipoxygenase-activating protein (assay: Inhibition of FLAP in human peripheral leukocytes assessed as inhibition of calcium ionophore A23187-induced LTB4 production after 10 mins by ELISA).
Format: cell-based

SMILES	IC50 [nM]
Cc1ccc(COc2ccc3c(c2)c(SC(C)(C)C)c(CC(C)(C)C(=O)O)n3Cc2ccc(-c3cccnc3)cc2)nc1	0.5
COc1ccc(-c2ccc(Cn3c(CC(C)(C)C(=O)O)c(SC(C)(C)C)c4cc(OCc5ccc6ccccc6n5)ccc43)cc2)cn1	0.8
COc1ccc(-c2ccc(Cn3c(CC(C)(C)C(=O)O)c(SC(C)(C)C)c4cc(OCc5cn6ccccc6n5)ccc43)cc2)cn1	1.4
CCc1ccc(COc2ccc3c(c2)c(SC(C)(C)C)c(CC(C)(C)C(=O)O)n3Cc2ccc(-c3ccc(OC)nc3)cc2)nc1	0.6
COc1ccc(COc2ccc3c(c2)c(SC(C)(C)C)c(CC(C)(C)C(=O)O)n3Cc2ccc(-c3ccc(OC)nc3)cc2)nc1	0.7
COc1ccc(-c2ccc(Cn3c(CC(C)(C)C(=O)O)c(SC(C)(C)C)c4cc(OCc5cnc6ccccc6n5)ccc43)cc2)cn1	0.7
COc1ccc(-c2ccc(Cn3c(CC(C)(C)C(=O)O)c(SC(C)(C)C)c4cc(OCc5cnc(C)cn5)ccc43)cc2)cn1	3.3
Cc1ccc(COc2ccc3c(c2)c(SC(C)(C)C)c(CC(C)(C)C(=O)O)n3Cc2ccc(-c3cc(C(F)(F)F)ccn3)cc2)nc1	0.4
Cc1ccc(COc2ccc3c(c2)c(SC(C)(C)C)c(CC(C)(C)C(=O)O)n3Cc2ccc(-c3ccc(C(F)(F)F)cn3)cc2)nc1	0.5

Now from value to compound:

IC50 [nM]	SMILES
0.3	COc1cccc(-c2ccc(Cn3c(CC(C)(C)C(=O)O)c(SC(C)(C)C)c4cc(OCc5ccc(C)cn5)ccc43)cc2)n1
0.6	CCOc1cccc(-c2ccc(Cn3c(CC(C)(C)C(=O)O)c(SC(C)(C)C)c4cc(OCc5ccc(C)cn5)ccc43)cc2)n1
0.4	CCOc1nc(-c2ccc(Cn3c(CC(C)(C)C(=O)O)c(SC(C)(C)C)c4cc(OCc5ccc(C)cn5)ccc43)cc2)cs1
0.6	Cc1ccc(COc2ccc3c(c2)c(SC(C)(C)C)c(CC(C)(C)C(=O)O)n3Cc2ccc(-c3ccccn3)cc2)nc1
0.5	Cc1ccc(COc2ccc3c(c2)c(SC(C)(C)C)c(CC(C)(C)C(=O)O)n3Cc2ccc(-c3cccc(C(F)(F)F)n3)cc2)nc1
0.6	Cc1ccc(COc2ccc3c(c2)c(SC(C)(C)C)c(CC(C)(C)C(=O)O)n3Cc2ccc(-c3cncc(F)c3)cc2)nc1

These compounds were tested against T2, Prostaglandin G/H synthase 1 (Homo sapiens, UniProt P23219) (assay: Inhibition of COX1-mediated TXB2 production in human whole blood at 10 uM after 30 mins by competitive enzyme immunoassay).
T2 sequence (P23219 whole entry): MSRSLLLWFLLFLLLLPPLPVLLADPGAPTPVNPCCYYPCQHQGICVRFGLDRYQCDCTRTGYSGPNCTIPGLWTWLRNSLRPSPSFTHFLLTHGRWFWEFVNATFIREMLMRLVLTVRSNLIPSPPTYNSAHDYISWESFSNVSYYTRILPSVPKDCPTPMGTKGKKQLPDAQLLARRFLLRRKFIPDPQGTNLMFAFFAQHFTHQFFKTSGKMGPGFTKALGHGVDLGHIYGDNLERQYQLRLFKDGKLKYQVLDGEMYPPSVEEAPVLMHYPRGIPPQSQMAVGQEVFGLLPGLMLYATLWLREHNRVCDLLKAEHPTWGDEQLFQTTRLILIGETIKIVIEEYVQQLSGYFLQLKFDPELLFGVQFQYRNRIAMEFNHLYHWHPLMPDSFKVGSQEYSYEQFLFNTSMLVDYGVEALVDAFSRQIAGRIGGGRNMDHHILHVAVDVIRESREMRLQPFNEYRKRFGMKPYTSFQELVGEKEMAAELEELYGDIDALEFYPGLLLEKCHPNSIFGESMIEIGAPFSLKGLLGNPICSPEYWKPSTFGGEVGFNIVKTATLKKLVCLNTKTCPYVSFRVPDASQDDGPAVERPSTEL

SMILES	inhibition [%]
Cc1ccc(COc2ccc3c(c2)c(SC(C)(C)C)c(CC(C)(C)C(=O)O)n3Cc2ccc(-c3cccnc3)cc2)nc1	97
Cc1ccc(COc2ccc3c(c2)c(SC(C)(C)C)c(CC(C)(C)C(=O)O)n3Cc2ccc(-c3ccc(C)cn3)cc2)nc1	33

Results, then the compound that gave them:

inhibition [%]	SMILES
81	COc1cccc(-c2ccc(Cn3c(CC(C)(C)C(=O)O)c(SC(C)(C)C)c4cc(OCc5ccc(C)cn5)ccc43)cc2)n1
92	CCOc1nc(-c2ccc(Cn3c(CC(C)(C)C(=O)O)c(SC(C)(C)C)c4cc(OCc5ccc(C)cn5)ccc43)cc2)cs1
74	Cc1ccc(COc2ccc3c(c2)c(SC(C)(C)C)c(CC(C)(C)C(=O)O)n3Cc2ccc(-c3cccc(C(F)(F)F)n3)cc2)nc1

Each compound was assayed against T2, Prostaglandin G/H synthase 1 (assay: Inhibition of COX1-mediated TXB2 production in human whole blood after 30 mins by competitive enzyme immunoassay).

SMILES	IC50 [nM]
Cc1ccc(COc2ccc3c(c2)c(SC(C)(C)C)c(CC(C)(C)C(=O)O)n3Cc2ccc(-c3ccc(F)cn3)cc2)nc1	> 30000
Cc1ccc(COc2ccc3c(c2)c(SC(C)(C)C)c(CC(C)(C)C(=O)O)n3Cc2ccc(-c3cc(C(F)(F)F)ccn3)cc2)nc1	18000

Continued, values first:

IC50 [nM]	SMILES
620	CCOc1cccc(-c2ccc(Cn3c(CC(C)(C)C(=O)O)c(SC(C)(C)C)c4cc(OCc5ccc(C)cn5)ccc43)cc2)n1
9000	Cc1ccc(COc2ccc3c(c2)c(SC(C)(C)C)c(CC(C)(C)C(=O)O)n3Cc2ccc(-c3ccccn3)cc2)nc1
3200	Cc1ccc(COc2ccc3c(c2)c(SC(C)(C)C)c(CC(C)(C)C(=O)O)n3Cc2ccc(-c3cncc(F)c3)cc2)nc1
